ChEMBL document CHEMBL4613241, “Disulfide Cleavage in a Dimeric Epipolythiodioxopiperazine Natural Product Diminishes Its Apoptosis-Inducing Effect but Enhances Autophagy in Tumor Cells” (2020)
Activity calls are given as the source filed them. No cut-off for these calls is given here.

Tests used:
HepG2 [1] = assay: Induction of autophagy in human HepG2 cells assessed as ratio of LC3-2 level to total ERK level at 0.5 uM after 2 hrs in presence of HK2 siRNA and CQ by Western blot analysis (reference value: 3.1); assay type: functional
HepG2 [2] = assay: Activation of AMPKalpha in human HepG2 cells assessed as ratio of phosphorylated AMPKalpha at T172 residue to total ERK level at 0.5 uM incubated for 4 hrs in presence of CC by Western blot analysis (reference value: 1); assay type: cell-based
HepG2 [3] = assay: Induction of autophagy in human HepG2 cells assessed as accumulation of LC3-2 protein level at 0.5 uM after 12 hrs in presence of CQ by Western blot analysis relative to CQ; assay type: functional
HepG2 [4] = assay: Induction of autophagy in human HepG2 cells assessed as ratio of LC3-2 level to total ERK level at 0.5 uM after 2 hrs by Western blot analysis (reference value: 1); assay type: functional
[5] = biological target: Serine/threonine-protein kinase mTOR (Homo sapiens) (UniProt P42345); assay: Inhibition of mTOR phosphorylation at S2448 residue in human HepG2 cells assessed as ratio of phosphorylated mTOR to total mTOR level at 0.25 uM after 4 hrs by Western blot analysis (reference value: 1); assay type: cell-based
T-24 = assay: Induction of autophagy in human T24 cells assessed as increase in ratio of LC3-2 to total Erk1/2 protein level at 0.5 uM after 12 hrs by Western blot analysis; assay type: functional, cell-based
[6] = biological target: Serine/threonine-protein kinase mTOR (Homo sapiens) (UniProt P42345); assay: Inhibition of mTOR phosphorylation at S2448 residue in human HepG2 cells assessed as ratio of phosphorylated mTOR to total mTOR level at 1 uM after 4 hrs by Western blot analysis (reference value: 1); assay type: cell-based
HepG2 [7] = assay: Induction of autophagy in human HepG2 cells assessed as ratio of LC3-2 to total Erk1/2 protein level at 0.5 uM after 4 hrs in presence of CQ by Western blot analysis (reference value: 2.6); assay type: functional
HepG2 [8] = assay: Activation of AMPKalpha in human HepG2 cells assessed as ratio of phosphorylated ACCalpha at S79 residue to total ERK level at 0.5 uM incubated for 4 hrs in presence of CC by Western blot analysis relative to CC; assay type: cell-based
[9] = biological target: Serine/threonine-protein kinase mTOR (Homo sapiens) (UniProt P42345); assay: Inhibition of mTOR phosphorylation at S2448 residue in human HepG2 cells assessed as ratio of phosphorylated mTOR to total ERK level at 1 uM after 4 hrs by Western blot analysis (reference value: 1); assay type: cell-based
HepG2 [10] = assay: Induction of autophagy in human HepG2 cells assessed as ratio of LC3-2 to total Erk1/2 protein level at 0.5 uM after 12 hrs in presence of CQ by Western blot analysis (reference value: 3.9); assay type: functional
HepG2 [11] = assay: Induction of autophagy in human HepG2 cells assessed as ratio of HK2 expression to total ERK level after 2 hrs by Western blot analysis (reference value: 1); assay type: functional
HepG2 [12] = assay: Induction of autophagy in human HepG2 cells assessed as ratio of LC3-2 level to total Erk1/2 protein level at 0.5 uM after 4 hrs in presence of CC and CQ by Western blot analysis relative to CC; assay type: functional
HepG2 [13] = assay: Induction of autophagy in human HepG2 cells assessed as ratio of LC3-2 level to total ERK level at 0.5 uM after 2 hrs in presence of PFK15 by Western blot analysis (reference value: 1.1); assay type: functional
HepG2 [14] = assay: Induction of autophagy in human HepG2 cells assessed as ratio of LC3-2 to total Erk1/2 protein level at 0.5 uM after 12 hrs by Western blot analysis (reference value: 1); assay type: functional
[15] = biological target: RAC-alpha serine/threonine-protein kinase (Homo sapiens) (UniProt P31749); assay: Inhibition of AKT phosphorylation at S473 residue in human HepG2 cells assessed as ratio of phosphorylated Akt to total ERK level at 0.5 uM after 4 hrs by Western blot analysis (reference value: 1); assay type: cell-based
RAC-alpha serine/threonine-protein kinase (Homo sapiens), sequence (P31749 whole entry): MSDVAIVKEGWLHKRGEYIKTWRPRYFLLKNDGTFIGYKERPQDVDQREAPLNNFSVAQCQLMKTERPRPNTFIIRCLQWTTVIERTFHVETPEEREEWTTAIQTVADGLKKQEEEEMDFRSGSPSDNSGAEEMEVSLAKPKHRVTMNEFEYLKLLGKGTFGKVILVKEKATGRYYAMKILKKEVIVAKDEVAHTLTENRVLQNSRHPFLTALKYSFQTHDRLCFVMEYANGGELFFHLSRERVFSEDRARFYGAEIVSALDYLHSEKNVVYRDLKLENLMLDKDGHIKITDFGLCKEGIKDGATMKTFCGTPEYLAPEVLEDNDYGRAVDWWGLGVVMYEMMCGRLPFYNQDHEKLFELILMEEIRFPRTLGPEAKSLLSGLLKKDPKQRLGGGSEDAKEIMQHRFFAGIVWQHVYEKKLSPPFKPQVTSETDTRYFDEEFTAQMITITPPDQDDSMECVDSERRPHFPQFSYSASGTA

HepG2 [16] = assay: Induction of autophagy in human HepG2 cells assessed as ratio of LC3-2 level to total ERK level at 0.5 uM after 2 hrs in presence of 2-DG and CQ by Western blot analysis (reference value: 3.9); assay type: functional
[17] = biological target: Serine/threonine-protein kinase mTOR (Homo sapiens) (UniProt P42345); assay: Inhibition of mTOR phosphorylation at S2448 residue in human HepG2 cells assessed as ratio of phosphorylated mTOR to total ERK level at 0.1 uM after 4 hrs by Western blot analysis (reference value: 1); assay type: cell-based
HepG2 [18] = assay: Induction of autophagy in human HepG2 cells assessed as ratio of PFKFB3 expression to total ERK level after 2 hrs by Western blot analysis (reference value: 1); assay type: functional
HepG2 [19] = assay: Induction of autophagy in human HepG2 cells ratio of LC3-2 level to total ERK level at 0.5 uM after 2 hrs in presence of CQ by Western blot analysis relative to CQ; assay type: functional
[20] = biological target: Serine/threonine-protein kinase mTOR (Homo sapiens) (UniProt P42345); assay: Inhibition of mTOR phosphorylation at S2448 residue in human HepG2 cells assessed as ratio of phosphorylated mTOR to total ERK level at 0.5 uM after 4 hrs by Western blot analysis (reference value: 1); assay type: cell-based
HepG2 [21] = assay: Induction of autophagy in human HepG2 cells assessed as ratio of LC3-2 level to total ERK level at 0.5 uM after 2 hrs in presence of PFK15 and CQ by Western blot analysis (reference value: 1.1); assay type: functional
HepG2 [22] = assay: Induction of endoplasmic reticulum stress in human HepG2 cells assessed as increase in […] expression at 0.5 uM after 4 hrs by anti-ATF6 antibody staining based fluorescence microscopic method; assay type: functional, cell-based
HepG2 [23] = assay: Induction of autophagy in human HepG2 cells assessed as ratio of LC3-2 level to total ERK level at 0.5 uM after 2 hrs in presence of CQ by Western blot analysis (reference value: 1); assay type: functional
HepG2 [24] = assay: Induction of autophagy in human HepG2 cells assessed as ratio of LC3-2 level to total Erk1/2 protein level at 0.5 uM after 4 hrs in presence of CC and CQ by Western blot analysis (reference value: 2.4); assay type: functional
[25] = biological target: Serine/threonine-protein kinase mTOR (Homo sapiens) (UniProt P42345); assay: Inhibition of mTOR phosphorylation at S2448 residue in human HepG2 cells assessed as ratio of phosphorylated mTOR to total ERK level at 0.05 uM after 4 hrs by Western blot analysis (reference value: 1); assay type: cell-based
SW480 = assay: Antiproliferative activity against human SW480 cells assessed as reduction in cell viability by MTS assay; assay type: functional, cell-based
[26] = biological target: Serine/threonine-protein kinase mTOR (Homo sapiens) (UniProt P42345); assay: Inhibition of mTOR phosphorylation at S2448 residue in human HepG2 cells assessed as ratio of phosphorylated mTOR to total mTOR level at 0.05 uM after 4 hrs by Western blot analysis (reference value: 1); assay type: cell-based
HepG2 [27] = assay: Activation of AMPKalpha in human HepG2 cells assessed as ratio of phosphorylated AMPKalpha at T172 residue to total ERK level at 0.5 uM incubated for 4 hrs in presence of CC by Western blot analysis relative to CC; assay type: cell-based
HepG2 [28] = assay: Induction of autophagy in human HepG2 cells assessed as accumulation of LC3-2 protein level at 0.5 uM after 4 hrs in presence of CQ by Western blot analysis analysis relative to CQ; assay type: functional

CC[C@@]12SS[C@]3(C(=O)N1C)[C@@H](O)C1(C45c6ccccc6N[C@@H]4N4C(=O)[C@]6([C@@H](C)O)SS[C@]4(C(=O)N6C)[C@H]5O)c4ccccc4N[C@@H]1N3C2=O (stereo not given in full)
Ratio (HepG2 [1]): 4.7
Ratio (HepG2 [2]): 0.9
fold change (FC) (HepG2 [3]): 3.2
Ratio (HepG2 [4]): 1.5
Ratio [5]: 1.4
Activity (T-24): Active
Ratio [6]: 1.8
Ratio (HepG2 [7]): 2.8
fold change (FC) (HepG2 [8]): 0.7
Ratio [9]: 1
Ratio (HepG2 [10]): 4.2
Ratio (HepG2 [11]): 0.8
fold change (FC) (HepG2 [12]): 0.9
Ratio (HepG2 [13]): 1.3
Ratio (HepG2 [14]): 1.3
Ratio [15]: 1.2
Ratio (HepG2 [16]): 3.7
Ratio [17]: 0.9
Ratio (HepG2 [18]): 0.7
fold change (FC) (HepG2 [19]): 2.1
Ratio [20]: 1
Ratio (HepG2 [21]): 4.4
Activity (HepG2 [22]): inactive
Ratio (HepG2 [23]): 3.1
Ratio (HepG2 [24]): 0.9
Ratio [25]: 1
Activity (SW480): Active
Ratio [26]: 1.4
fold change (FC) (HepG2 [27]): 0.8
fold change (FC) (HepG2 [28]): 2.3

CCC1(SC)C(=O)N2[C@H]3N(C)c4ccccc4C3(C34c5ccccc5N(C)[C@@H]3N3C(=O)C(SC)([C@@H](C)O)N(C)C(=O)C3(SC)[C@H]4O)[C@H](O)C2(SC)C(=O)N1C (stereo not given in full)
Ratio (HepG2 [1]): 7.2
Ratio (HepG2 [2]): 0.9
fold change (FC) (HepG2 [3]): 3.6
Ratio (HepG2 [4]): 1.6
Ratio [5]: 2.2
Activity (T-24): Active
Ratio [6]: 2.2
Ratio (HepG2 [7]): 3.1
fold change (FC) (HepG2 [8]): 0.7
Ratio [9]: 0.9
Ratio (HepG2 [10]): 4.4
Ratio (HepG2 [11]): 0.6
fold change (FC) (HepG2 [12]): 1.3
Ratio (HepG2 [13]): 1.6
Ratio (HepG2 [14]): 1.2
Ratio [15]: 1.1
Ratio (HepG2 [16]): 3.7
Ratio [17]: 1
Ratio (HepG2 [18]): 0.6
fold change (FC) (HepG2 [19]): 2.2
Ratio [20]: 1
Ratio (HepG2 [21]): 3.9
Activity (HepG2 [22]): inactive
Ratio (HepG2 [23]): 3.2
Ratio (HepG2 [24]): 0.9
Ratio [25]: 1
Activity (SW480): Active
Ratio [26]: 1.8
fold change (FC) (HepG2 [27]): 0.6
fold change (FC) (HepG2 [28]): 2.8
